Here are results for 33 compounds from patent US12071404B2, “Aza (indole)-, benzothiophene-, and benzofuran-3-sulfonamides” (UCB Pharma GmbH, priority 2016, dated 2024).

Assay [1] has as its target T1, GPR17 (Homo sapiens, UniProt Q13304). Put plainly: Calcium mobilization functional assay (GPR17 Ca2+ assay). The format is cell-based. The arrangement: host or cells: Flp-In T-REx CHO. The settings on record: CHO hGPR17 cells, inhibition of 50 nM MDL29,951, Calcium 5 dye, FLIPR; read-out: Ca2+ assay pIC50 (converted). An outline of the steps: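 pIC50 values were fitted with a 4-parameter logistic curve. They reflect test-compound inhibition of cytosolic Ca2+ release evoked by 50 nM MDL29,951, tracked as Calcium 5 fluorescence at room temperature. Cells were CHO Flp-In T-REx stably carrying human GPR17, induced with doxycycline 1 μg/mL for 16-20 h.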
Background: A change in cytosolic calcium serves as a functional read-out for many receptors and channels.

The target of assay [2] is T1, GPR17. Put plainly: cAMP accumulation functional assay (HTRF, Schild analysis). Particulars: CHO hGPR17 cells, Schild analysis vs MDL29,951, 5 μM forskolin, read-out: cAMP assay pA2 (converted). In kind it is cell-based. The arrangement: host or cells: Flp-In T-REx CHO. In a few lines:
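Antagonist affinity (pA2) came from Schild plots of dose ratios, based on MDL29,951 concentration-response curves fitted by 4-parameter logistic. The read-out was HTRF cAMP in 5,000 doxycycline-induced CHO hGPR17 cells per well, with 30 min compound preincubation and 60 min stimulation, at room temperature in pH 7.4 buffer.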
(In general: cAMP levels reflect the balance of adenylyl cyclase and phosphodiesterase activity.)

Bounds are passed on as bounds.

T1 sequence (Q13304 whole entry): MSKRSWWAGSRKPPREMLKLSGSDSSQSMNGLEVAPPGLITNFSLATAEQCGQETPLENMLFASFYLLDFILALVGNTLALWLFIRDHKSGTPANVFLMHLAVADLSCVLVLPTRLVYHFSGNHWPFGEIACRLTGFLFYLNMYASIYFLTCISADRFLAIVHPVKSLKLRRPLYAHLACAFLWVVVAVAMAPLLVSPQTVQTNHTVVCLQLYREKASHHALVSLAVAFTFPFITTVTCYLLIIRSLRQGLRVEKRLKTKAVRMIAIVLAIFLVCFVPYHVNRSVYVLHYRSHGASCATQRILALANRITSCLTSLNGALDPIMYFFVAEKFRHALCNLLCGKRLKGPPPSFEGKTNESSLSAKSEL

Turning to `COc1nc(NS(=O)(=O)c2c[nH]c3cc(Cl)ccc23)c(F)cc1F` [Compound I-345, 6-chloro-N-(3,5-difluoro-6-methoxypyridin-2-yl)-1H-indole-3-sulfonamide], the IC50 on GPR17 [1] is 3.16 to 31.6 nM. Further, the Kb on GPR17 [2] was 3.16 to 31.6 nM.
As for `COc1c(Cl)ccc2c(S(=O)(=O)Nc3nc(F)c(Cl)cc3F)c[nH]c12` [Compound I-310, 6-chloro-N-(5-chloro-3,6-difluoropyridin-2-yl)-7-methoxy-1H-indole-3-sulfonamide], the IC50 on GPR17 [1] is under 3.16 nM. The Kb at GPR17 [2] is under 3.16 nM.
Take `O=S(=O)(Nc1ncc(Cl)cc1F)c1c[nH]c2cc(Br)ccc12` [Compound I-290, 6-Bromo-N-(5-chloro-3-fluoropyridin-2-yl)-1H-indole-3-sulfonamide]: the IC50 at GPR17 [1] was under 3.16 nM. Besides, the Kb at GPR17 [2] is under 3.16 nM.
As to `O=S(=O)(Nc1cc(F)c(C(F)(F)F)cc1F)c1c[nH]c2nc(Cl)ccc12` [Compound I-303, 6-chloro-N-[2,5-difluoro-4-(trifluoromethyl)phenyl]-1H-pyrrolo[2,3-b]pyridine-3-sulfonamide], the IC50 on GPR17 [1] was under 3.16 nM. At GPR17 [2], the Kb is under 3.16 nM.
For `O=S(=O)(Nc1ccc(Br)cc1F)c1c[nH]c2cc(Cl)ccc12` [Compound I-212, N-(4-bromo-2-fluorophenyl)-6-chloro-1H-indole-3-sulfonamide], the IC50 on GPR17 [1] is 3.16 to 31.6 nM. The Kb at GPR17 [2] is under 3.16 nM.
In the same order, the values of `COc1nc(NS(=O)(=O)c2c[nH]c3c(F)c(Cl)c(F)cc23)c(F)cc1Cl` [Compound I-340, 6-chloro-N-(5-chloro-3-fluoro-6-methoxypyridin-2-yl)-5,7-difluoro-1H-indole-3-sulfonamide] are 3.16 to 31.6 nM and 3.16 to 31.6 nM.
In the same order, the values of `COc1cc(CC#N)cnc1NS(=O)(=O)c1c[nH]c2cc(Cl)ccc12` [Compound I-194, 6-chloro-N-[5-(cyanomethyl)-3-methoxypyridin-2-yl]-1H-indole-3-sulfonamide] are under 3.16 nM and under 3.16 nM.
In the same order, the values of `O=S(=O)(Nc1ncc(C(F)(F)F)cc1F)c1c[nH]c2cc(Cl)ccc12` [Compound I-297, 6-chloro-N-[3-fluoro-5-(trifluoromethyl)pyridin-2-yl]-1H-indole-3-sulfonamide] are 3.16 to 31.6 nM and under 3.16 nM.
As for `COc1ccc2c(S(=O)(=O)Nc3cc(F)c(Cl)cc3F)c(F)[nH]c2c1` [Compound I-318, N-(4-chloro-2,5-difluorophenyl)-2-fluoro-6-methoxy-1H-indole-3-sulfonamide], the IC50 at GPR17 [1] was 3.16 to 31.6 nM. For the same compound, the Kb on GPR17 [2] is 3.16 to 31.6 nM.
Regarding `O=S(=O)(Nc1cccc2nsnc12)c1c[nH]c2cc(Br)ccc12` [Compound I-110, N-(2,1,3-benzothiadiazol-4-yl)-6-bromo-1H-indole-3-sulfonamide], the IC50 at GPR17 [1] was under 3.16 nM. Besides, at GPR17 [2], the Kb is under 3.16 nM.
`O=S(=O)(Nc1cccc2c1OCO2)c1c[nH]c2cc(Cl)ccc12` [Compound I-25, N-(1,3-benzodioxol-4-yl)-6-chloro-1H-indole-3-sulfonamide]: at GPR17 [1], the IC50 is under 3.16 nM. Also, the Kb on GPR17 [2] is 3.16 to 31.6 nM.
The corresponding values for `COc1ccc2c(S(=O)(=O)Nc3ccc(C(F)(F)F)cc3F)c[nH]c2c1` [Compound I-287, N-(2-fluoro-4-(trifluoromethyl)phenyl)-6-methoxy-1H-indole-3-sulfonamide] are under 3.16 nM and 3.16 to 31.6 nM.
In the same order, the values of `O=S(=O)(Nc1ccc(I)cc1F)c1c[nH]c2nc(Br)ccc12` [Compound I-104, 6-bromo-N-(2-fluoro-4-iodophenyl)-1H-pyrrolo[2,3-b]pyridine-3-sulfonamide] are under 3.16 nM and under 3.16 nM.
In the same order, the values of `O=S(=O)(Nc1cccc2nonc12)c1c[nH]c2cc(Cl)ccc12` [Compound I-216, N-(2,1,3-benzoxadiazol-4-yl)-6-chloro-1H-indole-3-sulfonamide] are 3.16 to 31.6 nM and 3.16 to 31.6 nM.
Take `O=S(=O)(Nc1ccc(F)c2nsnc12)c1c[nH]c2cc(Cl)ccc12` [Compound I-127, 6-chloro-N-(7-fluoro-2,1,3-benzothiadiazol-4-yl)-1H-indole-3-sulfonamide]: at GPR17 [1], the IC50 is 3.16 to 31.6 nM. In addition, the Kb on GPR17 [2] was 3.16 to 31.6 nM.
As to `N#Cc1ccc(NS(=O)(=O)c2c[nH]c3nc(Cl)ccc23)c(F)c1` [Compound I-108, 6-chloro-N-(4-cyano-2-fluorophenyl)-1H-pyrrolo[2,3-b]pyridine-3-sulfonamide], the IC50 at GPR17 [1] is 3.16 to 31.6 nM. Moreover, the Kb at GPR17 [2] was 3.16 to 31.6 nM.
Consider `O=S(=O)(Nc1cc(F)c(Cl)cc1F)c1c[nH]c2cc(-c3ccsc3)ccc12` [Compound I-236, N-(4-chloro-2,5-difluorophenyl)-6-(thiophen-3-yl)-1H-indole-3-sulfonamide], for which the IC50 on GPR17 [1] is over 31.6 nM. For the same compound, on GPR17 [2], the Kb is over 31.6 nM.
Consider `COc1c(Cl)ccc2c(S(=O)(=O)Nc3cc(F)c(Cl)cc3F)c[nH]c12` [Compound I-244, 6-chloro-N-(4-chloro-2,5-difluorophenyl)-7-methoxy-1H-indole-3-sulfonamide], for which, on GPR17 [1], the IC50 is 3.16 to 31.6 nM. Moreover, the Kb at GPR17 [2] is under 3.16 nM.
Turning to `COc1cnc(NS(=O)(=O)c2c[nH]c3cc(Cl)ccc23)c(OC)c1` [Compound I-264, 6-chloro-N-(3,5-dimethoxypyridin-2-yl)-1H-indole-3-sulfonamide], on GPR17 [1], the IC50 was over 31.6 nM. At GPR17 [2], the Kb is over 31.6 nM.
Turning to `COc1nc(NS(=O)(=O)c2c[nH]c3c(OC)c(Cl)ccc23)c(F)cc1Cl` [Compound I-309, 6-chloro-N-(5-chloro-3-fluoro-6-methoxypyridin-2-yl)-7-methoxy-1H-indole-3-sulfonamide], at GPR17 [1], the IC50 was under 3.16 nM. The Kb at GPR17 [2] is under 3.16 nM.
As to `O=S(=O)(Nc1cc(F)c(Cl)cc1F)c1c[nH]c2cc(OCC(F)(F)F)ccc12` [Compound I-300, N-(4-chloro-2,5-difluorophenyl)-6-(2,2,2-trifluoroethoxy)-1H-indole-3-sulfonamide], the IC50 on GPR17 [1] was 3.16 to 31.6 nM. In addition, on GPR17 [2], the Kb was 3.16 to 31.6 nM.
For `O=S(=O)(Nc1cc(F)c(Cl)cc1F)c1csc2cc(Cl)ccc12` [Compound I-312, 6-chloro-N-(4-chloro-2,5-difluorophenyl)-1-benzothiophene-3-sulfonamide], the IC50 on GPR17 [1] was 3.16 to 31.6 nM. The Kb at GPR17 [2] is 3.16 to 31.6 nM.
For the compound `COc1nc(NS(=O)(=O)c2csc3cc(Cl)ccc23)c(F)cc1CC#N` [Compound I-315, 6-chloro-N-[5-(cyanomethyl)-3-fluoro-6-methoxypyridin-2-yl]-1-benzothiophene-3-sulfonamide], the IC50 on GPR17 [1] is under 3.16 nM. For the same compound, on GPR17 [2], the Kb was under 3.16 nM.
`COc1nc(NS(=O)(=O)c2c[nH]c3c(OC(F)F)c(Cl)ccc23)c(F)cc1F` [Compound I-366, 6-chloro-7-(difluoromethoxy)-N-(3,5-difluoro-6-methoxypyridin-2-yl)-1H-indole-3-sulfonamide]: the IC50 on GPR17 [1] is 3.16 to 31.6 nM. Besides, on GPR17 [2], the Kb was 3.16 to 31.6 nM.
Turning to `N#Cc1ccc(NS(=O)(=O)c2c[nH]c3cc(Cl)c(Br)cc23)c(F)c1` [Compound I-343, 5-bromo-6-chloro-N-(4-cyano-2-fluorophenyl)-1H-indole-3-sulfonamide], the IC50 at GPR17 [1] was 3.16 to 31.6 nM. In addition, the Kb on GPR17 [2] is under 3.16 nM.
The corresponding values for `COc1ccc2c(S(=O)(=O)Nc3ccc(C#N)cc3F)c[nH]c2c1` [Compound I-112, N-(4-cyano-2-fluorophenyl)-6-methoxy-1H-indole-3-sulfonamide] are 3.16 to 31.6 nM and 3.16 to 31.6 nM.
The corresponding values for `N#Cc1cc(F)c(NS(=O)(=O)c2c[nH]c3cc(Cl)ccc23)cc1F` [Compound I-185, 6-chloro-N-(4-cyano-2,5-difluorophenyl)-1H-indole-3-sulfonamide] are under 3.16 nM and under 3.16 nM.
As for `O=C1OCc2ccc(NS(=O)(=O)c3c[nH]c4cc(Cl)ccc34)cc21` [Compound I-8, 6-chloro-N-(3-oxo-1,3-dihydro-2-benzofuran-5-yl)-1H-indole-3-sulfonamide], the IC50 at GPR17 [1] is over 31.6 nM. Besides, at GPR17 [2], the Kb was over 31.6 nM.
Regarding `O=S(=O)(Nc1cc(F)c(Cl)cc1F)c1c[nH]c2nc(Cl)ccc12` [Compound I-227, 6-chloro-N-(4-chloro-2,5-difluorophenyl)-1H-pyrrolo[2,3-b]pyridine-3-sulfonamide], the IC50 on GPR17 [1] is under 3.16 nM. Besides, at GPR17 [2], the Kb was under 3.16 nM.
Turning to `O=S(=O)(Nc1nc(F)c(Br)cc1F)c1c[nH]c2cc(Cl)ccc12` [Compound I-245, N-(5-bromo-3,6-difluoropyridin-2-yl)-6-chloro-1H-indole-3-sulfonamide], the IC50 on GPR17 [1] is under 3.16 nM. The Kb at GPR17 [2] was under 3.16 nM.
`O=S(=O)(Nc1ccc(Br)c(Cl)n1)c1c[nH]c2cc(Cl)ccc12` [Compound I-275, N-(5-bromo-6-chloropyridin-2-yl)-6-chloro-1H-indole-3-sulfonamide]: at GPR17 [1], the IC50 was 3.16 to 31.6 nM. In addition, the Kb on GPR17 [2] is 3.16 to 31.6 nM.
In the case of `Cc1cc(F)c(NS(=O)(=O)c2c[nH]c3c(F)c(Cl)ccc23)nc1F` [Compound I-355, 6-chloro-N-(3,6-difluoro-5-methylpyridin-2-yl)-7-fluoro-1H-indole-3-sulfonamide], the IC50 on GPR17 [1] was under 3.16 nM. In addition, on GPR17 [2], the Kb is 3.16 to 31.6 nM.
In the same order, the values of `N#CCOc1cc(F)c(NS(=O)(=O)c2csc3cc(Cl)ccc23)cc1F` [Compound I-313, 6-chloro-N-[4-(cyanomethoxy)-2,5-difluorophenyl]-1-benzothiophene-3-sulfonamide] are 3.16 to 31.6 nM and 3.16 to 31.6 nM.
